# Experimental data as given in patent publication US8957062B2, “Substituted cyclopropyl compounds, compositions containing such compounds and methods of treatment” (Merck Sharp & Dohme Corp., priority 2011, dated 2015).
# Target: T1, human GPR119 (Homo sapiens, UniProt Q8TDV5)
# T1 sequence (Q8TDV5 1-308 limits assumed): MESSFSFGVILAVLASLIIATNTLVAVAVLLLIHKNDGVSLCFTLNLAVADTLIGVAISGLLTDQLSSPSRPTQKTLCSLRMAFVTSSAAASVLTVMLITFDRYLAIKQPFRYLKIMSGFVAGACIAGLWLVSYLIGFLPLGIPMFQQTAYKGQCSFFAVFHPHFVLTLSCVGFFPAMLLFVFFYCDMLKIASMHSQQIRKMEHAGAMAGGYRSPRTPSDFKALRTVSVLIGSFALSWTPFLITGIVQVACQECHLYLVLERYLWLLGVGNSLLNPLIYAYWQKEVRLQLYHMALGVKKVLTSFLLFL
# Assay: Measurement of GPR119 signaling (cAMP assay) in cells stably transfected with human GPR119
# Format: cell-based
# Settings: cAMP stimulation; read-out: GPR119 HumC EC50
row,EC50,SMILES
1,0.88 nM,CC1(OC(=O)N2CCC([C@H]3C[C@H]3CCOc3ccc(CC(=O)N4CC(F)C4)c(F)c3)CC2)CC1 [Example 63]
2,0.33 nM,COC1CN(C(=O)Cc2c(F)cc(OCC[C@@H]3C[C@@H]3C3CCN(c4nc(C(C)C)no4)CC3)cc2F)C1 [Example 113]

# Same assay, conditions: stated in the example text; cAMP stimulation, human GPR119; read-out: GPR119 Human EC50
row,EC50,SMILES
1,7 nM,"COCc1noc(N2CCC([C@H]3C[C@H]3CCOc3ccc(S(C)(=O)=O)cn3)CC2)n1 [Example 208, 3-(methoxymethyl)-5-(4-((1R,2S)-2-(2-(5-(methylsulfonyl)pyridin-2-yloxy)ethyl)cyclopropyl)piperidin-1-yl)-1,2,4-oxadiazole]"
2,0.7 nM,"Cc1cc(-n2cnnn2)cnc1OCC[C@@H]1C[C@@H]1C1CCN(C(=O)OC2(C)CC2)CC1 [Example 30, 1-methylcyclopropyl 4-[(1R,2S)-2-(2-{[3-methyl-5-(1H-tetrazol-1 yl)pyridin-2-yl]oxy}ethyl)cyclopropyl]piperidine-1-carboxylate]"
3,9.2 nM,"CCc1nc(N2CCC([C@H]3C[C@H]3CCOc3ccc(S(C)(=O)=O)cn3)CC2)no1 [Example 233, 2-(2-{(1S,2R)-2-[1-(5-ethyl-1,2,4-oxidiazol-5-yl)piperidin-4-yl]cyclopropyl}ethoxy)-5-(methylsulfonyl)pyridine]"

# Same assay, conditions: table column; cAMP stimulation, human GPR119; read-out: GPR119 Human EC50
row,EC50,SMILES
1,1.1 nM,CC(C)c1noc(N2CCC([C@H]3C[C@H]3CCOc3ccc(CC(=O)N4C[C@@H](F)[C@H](F)C4)cc3)CC2)n1 [Example 127]
2,2 nM,COCc1noc(N2CCC([C@H]3C[C@H]3CCOc3ccc(CC(=O)N4CC(F)C4)c(F)c3)CC2)n1 [Example 199]
3,5.2 nM,CC1(c2nc(N3CCC([C@H]4C[C@H]4CCOc4ccc(S(C)(=O)=O)cn4)CC3)no2)CC1 [Example 240]
4,5 nM,Cc1cc(-n2cnnn2)cnc1OCC[C@@H]1C[C@@H]1C1CCN(c2nc(C(C)O)no2)CC1 (some centres unmarked) [Example 229]
5,10 nM,CS(=O)(=O)c1ccc(OCC[C@@H]2C[C@@H]2C2CCN(C(=O)CC3CCC3)CC2)cc1F [Example 92]
6,8.5 nM,COC1CN(C(=O)Cc2ccc(OCC[C@@H]3C[C@@H]3C3CCN(c4nc(C(C)C)no4)CC3)cc2)C1 [Example 135]
7,6.7 nM,CC(C)c1noc(N2CCC([C@H]3C[C@H]3CCOc3ccc(CC(=O)N(C)C)cc3)CC2)n1 [Example 137]
8,2.1 nM,Cc1nc2c(o1)CN(C(=O)Cc1ccc(OCC[C@@H]3C[C@@H]3C3CCN(c4nc(C(C)C)no4)CC3)cc1F)CC2 [Example 183]
9,8.2 nM,CC(C)c1noc(N2CCC([C@H]3C[C@H]3CCOc3ccc(CC(=O)N4CC(C(C)(C)O)C4)c(F)c3)CC2)n1 [Example 149]
10,2 nM,COCCc1noc(N2CCC([C@H]3C[C@H]3CCOc3ncc(-n4cnnn4)cc3C)CC2)n1 [Example 228]
11,5.3 nM,CC(C)c1noc(N2CCC([C@H]3C[C@H]3CCOc3ccc(CC(=O)N4CC[C@@H](F)C4)cc3)CC2)n1 [Example 134]

# System: not given
# Assay: not given
# Settings: not given
row,melting point,SMILES
1,68 to 70 °C,"COCc1noc(N2CCC([C@H]3C[C@H]3CCOc3ccc(S(C)(=O)=O)cn3)CC2)n1 [Example 208, 3-(methoxymethyl)-5-(4-((1R,2S)-2-(2-(5-(methylsulfonyl)pyridin-2-yloxy)ethyl)cyclopropyl)piperidin-1-yl)-1,2,4-oxadiazole]"
